In US11208412B2 (DAEGU-GYEONGBUK MEDICAL INNOVATION FOUNDATION, priority 2017, dated 2021) one finds remaining binding data, which are given here for three molecules.

Read-outs that look alike come from different tables or passages of the source.

Holding throughout (experiment): Kinase selectivity, DiscoverX scanMAX Kinase assay panel (% control)
Holding throughout (type): binding

The target in assay [1] is T1, kinases of the scanMAX Kinase assay panel (Homo sapiens, UniProt O75582).
T1 construct: purchased DiscoverX Co. (contract measurement) scanMAX Kinase assay panel
The following applies: 1 uM in DMSO. The method in brief: (§1)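 Each enzyme is treated with drug at 1 uM in DMSO, then signal is scaled between a positive control (0%) and DMSO (100%) to give % control. Kinases with % control under 35% are scored as inhibited.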

Assay [2] concerns the target T2, kinases of the scanMAX Kinase assay panel (Homo sapiens, UniProt Q9P2K8, S808G).
T2 construct: purchased DiscoverX Co. (contract measurement) scanMAX Kinase assay panel
The following applies: GCN2(Kin.Dom.2, S808G); 1 uM. The method in brief:
as §1

In assay [3] the target is T3, kinases of the scanMAX Kinase assay panel (Homo sapiens, UniProt P35590).
T3 construct: purchased DiscoverX Co. (contract measurement) scanMAX Kinase assay panel
The settings on record: kinase TIE1; 1 uM in DMSO. The method in brief:
as §1

The target in assay [4] is T4, kinases of the scanMAX Kinase assay panel (Homo sapiens, UniProt P00533, T790M).
T4 construct: purchased DiscoverX Co. (contract measurement) scanMAX Kinase assay panel
The settings on record: EGFR(T790M); 1 uM. An outline of the steps:
as §1

Assay [5] addresses T5, kinases of the scanMAX Kinase assay panel (Homo sapiens, UniProt Q96J92).
T5 construct: purchased DiscoverX Co. (contract measurement) scanMAX Kinase assay panel
The settings on record: kinase WNK4; 1 uM in DMSO. The method in brief: as §1

Assay [6] addresses T6, kinases of the scanMAX Kinase assay panel (Homo sapiens, UniProt P42681).
T6 construct: purchased DiscoverX Co. (contract measurement) scanMAX Kinase assay panel
T6 sequence (P42681 1-527): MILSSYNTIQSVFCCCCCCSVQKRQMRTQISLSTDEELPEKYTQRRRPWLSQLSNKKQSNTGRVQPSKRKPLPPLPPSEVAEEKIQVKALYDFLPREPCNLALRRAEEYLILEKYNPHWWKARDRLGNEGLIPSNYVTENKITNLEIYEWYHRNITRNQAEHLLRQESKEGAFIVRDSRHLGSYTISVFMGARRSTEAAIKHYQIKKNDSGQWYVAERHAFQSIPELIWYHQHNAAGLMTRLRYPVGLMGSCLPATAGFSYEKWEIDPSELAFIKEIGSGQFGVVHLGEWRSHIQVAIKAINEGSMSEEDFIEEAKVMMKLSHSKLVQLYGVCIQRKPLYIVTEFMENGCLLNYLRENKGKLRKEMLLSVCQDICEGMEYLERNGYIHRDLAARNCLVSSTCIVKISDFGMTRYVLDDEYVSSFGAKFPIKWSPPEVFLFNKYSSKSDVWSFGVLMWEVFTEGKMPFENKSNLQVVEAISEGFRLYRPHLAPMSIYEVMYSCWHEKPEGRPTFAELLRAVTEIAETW
The settings on record: kinase TXK; 1 uM in DMSO. The method in brief: as §1

Assay [7] concerns the target T7, kinases of the scanMAX Kinase assay panel (Homo sapiens, UniProt P42336, C420R).
T7 construct: purchased DiscoverX Co. (contract measurement) scanMAX Kinase assay panel
The settings on record: PIK3CA(C420R); 1 uM. An outline of the steps: as §1

The target of assay [8] is T8, kinases of the scanMAX Kinase assay panel (Homo sapiens, UniProt Q9NWZ3).
T8 construct: purchased DiscoverX Co. (contract measurement) scanMAX Kinase assay panel
T8 sequence (Q9NWZ3 1-460): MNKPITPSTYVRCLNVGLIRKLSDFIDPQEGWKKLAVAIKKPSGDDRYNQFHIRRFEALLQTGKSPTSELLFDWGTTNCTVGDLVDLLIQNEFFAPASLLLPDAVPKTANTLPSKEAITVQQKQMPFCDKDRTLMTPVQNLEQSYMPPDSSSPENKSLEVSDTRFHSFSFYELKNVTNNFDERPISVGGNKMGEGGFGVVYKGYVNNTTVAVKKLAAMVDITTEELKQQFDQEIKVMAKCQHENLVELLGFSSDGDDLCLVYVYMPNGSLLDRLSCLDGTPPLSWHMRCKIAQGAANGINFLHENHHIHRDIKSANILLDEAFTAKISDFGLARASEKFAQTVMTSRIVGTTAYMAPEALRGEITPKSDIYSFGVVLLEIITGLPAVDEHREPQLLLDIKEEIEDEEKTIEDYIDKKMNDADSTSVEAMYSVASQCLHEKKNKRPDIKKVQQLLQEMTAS
The following applies: IRAK4; 1 uM. The method in brief:
as §1

The target in assay [9] is T9, kinases of the scanMAX Kinase assay panel (Homo sapiens, UniProt P54646).
T9 construct: purchased DiscoverX Co. (contract measurement) scanMAX Kinase assay panel
The settings on record: AMPK-alpha2; 1 uM. An outline of the steps:
as §1

In assay [10] the target is T10, kinases of the scanMAX Kinase assay panel (Homo sapiens, UniProt Q92630).
T10 construct: purchased DiscoverX Co. (contract measurement) scanMAX Kinase assay panel
T10 sequence (Q92630 1-601): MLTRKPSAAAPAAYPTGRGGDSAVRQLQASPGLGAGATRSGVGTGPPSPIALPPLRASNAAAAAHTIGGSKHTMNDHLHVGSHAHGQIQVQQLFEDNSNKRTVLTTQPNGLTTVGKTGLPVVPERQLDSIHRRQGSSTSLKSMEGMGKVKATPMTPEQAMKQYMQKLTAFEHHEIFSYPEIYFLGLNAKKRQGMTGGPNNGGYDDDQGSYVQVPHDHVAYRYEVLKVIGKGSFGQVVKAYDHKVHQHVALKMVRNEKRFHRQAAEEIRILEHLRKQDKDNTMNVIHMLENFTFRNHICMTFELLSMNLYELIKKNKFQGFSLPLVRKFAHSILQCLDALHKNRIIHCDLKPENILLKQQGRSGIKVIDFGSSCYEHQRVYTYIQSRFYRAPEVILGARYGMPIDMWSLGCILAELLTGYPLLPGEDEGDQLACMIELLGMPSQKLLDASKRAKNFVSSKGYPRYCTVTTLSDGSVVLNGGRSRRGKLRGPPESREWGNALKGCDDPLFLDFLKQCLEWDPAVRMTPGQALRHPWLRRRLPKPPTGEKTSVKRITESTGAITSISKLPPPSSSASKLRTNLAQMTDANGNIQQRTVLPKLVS
The following applies: DYRK2; 1 uM. The method in brief: as §1

For assay [11], the target named is T11, kinases of the scanMAX Kinase assay panel (Homo sapiens, UniProt P31749).
T11 construct: purchased DiscoverX Co. (contract measurement) scanMAX Kinase assay panel
The following applies: AKT1; 1 uM. The method in brief: as §1

The target in assay [12] is T12, kinases of the scanMAX Kinase assay panel (Homo sapiens, UniProt P15056).
T12 construct: purchased DiscoverX Co. (contract measurement) scanMAX Kinase assay panel
T12 sequence (P15056 whole entry): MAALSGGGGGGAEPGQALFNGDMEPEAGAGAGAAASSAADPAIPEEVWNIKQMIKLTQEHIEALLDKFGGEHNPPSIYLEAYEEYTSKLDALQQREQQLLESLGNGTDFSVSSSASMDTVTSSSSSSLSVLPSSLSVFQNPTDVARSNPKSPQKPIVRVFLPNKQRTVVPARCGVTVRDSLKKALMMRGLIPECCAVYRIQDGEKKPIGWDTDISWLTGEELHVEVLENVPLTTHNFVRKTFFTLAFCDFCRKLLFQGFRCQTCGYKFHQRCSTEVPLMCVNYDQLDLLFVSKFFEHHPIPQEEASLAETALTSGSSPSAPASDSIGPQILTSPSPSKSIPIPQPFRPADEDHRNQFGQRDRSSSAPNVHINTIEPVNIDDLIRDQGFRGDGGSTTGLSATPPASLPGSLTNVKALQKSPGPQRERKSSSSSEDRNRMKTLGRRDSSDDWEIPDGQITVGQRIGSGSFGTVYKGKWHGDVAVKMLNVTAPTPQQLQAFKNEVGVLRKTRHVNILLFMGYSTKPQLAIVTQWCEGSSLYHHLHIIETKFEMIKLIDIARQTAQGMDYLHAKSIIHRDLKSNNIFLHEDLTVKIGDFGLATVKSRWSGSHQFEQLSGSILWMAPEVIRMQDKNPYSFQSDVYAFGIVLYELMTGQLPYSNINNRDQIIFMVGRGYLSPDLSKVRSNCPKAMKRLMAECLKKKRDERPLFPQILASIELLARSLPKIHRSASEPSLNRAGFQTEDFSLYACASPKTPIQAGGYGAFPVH
The following applies: BRAF; 1 uM. An outline of the steps: as §1

[13] abbreviates: kinase RPS6KA5(Kin.Dom.1-N-terminal), read-out: % control, RPS6KA5(Kin.Dom.1-N-terminal).
Where [14] appears, read: kinase RPS6KA5(Kin.Dom.2-C-terminal), read-out: % control, RPS6KA5(Kin.Dom.2-C-terminal).

T2 sequence (Q9P2K8 whole entry S808G): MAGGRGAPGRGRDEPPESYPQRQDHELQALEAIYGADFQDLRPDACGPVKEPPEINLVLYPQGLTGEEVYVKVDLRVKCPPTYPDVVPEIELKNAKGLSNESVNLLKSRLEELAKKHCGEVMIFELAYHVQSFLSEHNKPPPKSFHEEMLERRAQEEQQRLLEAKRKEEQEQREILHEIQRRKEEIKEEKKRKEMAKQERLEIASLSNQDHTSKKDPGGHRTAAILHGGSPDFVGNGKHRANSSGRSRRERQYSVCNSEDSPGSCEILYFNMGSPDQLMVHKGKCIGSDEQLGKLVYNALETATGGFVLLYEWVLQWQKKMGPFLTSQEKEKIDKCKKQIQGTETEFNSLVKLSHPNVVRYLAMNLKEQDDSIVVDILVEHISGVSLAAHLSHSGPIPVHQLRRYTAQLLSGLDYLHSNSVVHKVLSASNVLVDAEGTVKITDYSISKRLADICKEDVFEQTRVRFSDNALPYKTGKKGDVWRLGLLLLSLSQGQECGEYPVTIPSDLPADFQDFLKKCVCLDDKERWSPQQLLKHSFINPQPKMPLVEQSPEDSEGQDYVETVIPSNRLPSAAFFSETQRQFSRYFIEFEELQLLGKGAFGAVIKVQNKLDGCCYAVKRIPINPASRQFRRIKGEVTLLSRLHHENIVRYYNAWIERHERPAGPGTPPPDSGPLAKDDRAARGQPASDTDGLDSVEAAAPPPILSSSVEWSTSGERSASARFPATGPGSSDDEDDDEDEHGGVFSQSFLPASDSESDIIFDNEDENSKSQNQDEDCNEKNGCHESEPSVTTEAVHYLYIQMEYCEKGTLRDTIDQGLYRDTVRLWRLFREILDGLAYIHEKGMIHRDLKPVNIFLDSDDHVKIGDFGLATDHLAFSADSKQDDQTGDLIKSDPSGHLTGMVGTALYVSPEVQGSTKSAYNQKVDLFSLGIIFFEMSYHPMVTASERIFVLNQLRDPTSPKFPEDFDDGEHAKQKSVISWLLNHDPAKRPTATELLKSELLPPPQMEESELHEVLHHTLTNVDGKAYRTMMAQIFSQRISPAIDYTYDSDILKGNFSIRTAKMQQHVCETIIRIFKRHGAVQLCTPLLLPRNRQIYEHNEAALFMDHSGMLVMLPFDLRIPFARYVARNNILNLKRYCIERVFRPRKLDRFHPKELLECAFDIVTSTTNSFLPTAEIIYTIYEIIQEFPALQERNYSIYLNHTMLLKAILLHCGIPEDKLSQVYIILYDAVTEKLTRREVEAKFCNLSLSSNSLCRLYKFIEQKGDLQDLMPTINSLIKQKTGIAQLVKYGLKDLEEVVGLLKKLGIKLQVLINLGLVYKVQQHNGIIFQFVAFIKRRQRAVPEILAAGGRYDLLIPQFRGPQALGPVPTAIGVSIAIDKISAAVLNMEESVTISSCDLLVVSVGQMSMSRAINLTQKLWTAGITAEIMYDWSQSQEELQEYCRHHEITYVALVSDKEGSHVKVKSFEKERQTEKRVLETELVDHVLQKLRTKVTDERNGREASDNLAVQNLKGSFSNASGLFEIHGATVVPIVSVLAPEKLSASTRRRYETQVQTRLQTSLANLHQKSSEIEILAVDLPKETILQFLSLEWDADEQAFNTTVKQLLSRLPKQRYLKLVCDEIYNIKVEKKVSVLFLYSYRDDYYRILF
T7 sequence (P42336 whole entry C420R): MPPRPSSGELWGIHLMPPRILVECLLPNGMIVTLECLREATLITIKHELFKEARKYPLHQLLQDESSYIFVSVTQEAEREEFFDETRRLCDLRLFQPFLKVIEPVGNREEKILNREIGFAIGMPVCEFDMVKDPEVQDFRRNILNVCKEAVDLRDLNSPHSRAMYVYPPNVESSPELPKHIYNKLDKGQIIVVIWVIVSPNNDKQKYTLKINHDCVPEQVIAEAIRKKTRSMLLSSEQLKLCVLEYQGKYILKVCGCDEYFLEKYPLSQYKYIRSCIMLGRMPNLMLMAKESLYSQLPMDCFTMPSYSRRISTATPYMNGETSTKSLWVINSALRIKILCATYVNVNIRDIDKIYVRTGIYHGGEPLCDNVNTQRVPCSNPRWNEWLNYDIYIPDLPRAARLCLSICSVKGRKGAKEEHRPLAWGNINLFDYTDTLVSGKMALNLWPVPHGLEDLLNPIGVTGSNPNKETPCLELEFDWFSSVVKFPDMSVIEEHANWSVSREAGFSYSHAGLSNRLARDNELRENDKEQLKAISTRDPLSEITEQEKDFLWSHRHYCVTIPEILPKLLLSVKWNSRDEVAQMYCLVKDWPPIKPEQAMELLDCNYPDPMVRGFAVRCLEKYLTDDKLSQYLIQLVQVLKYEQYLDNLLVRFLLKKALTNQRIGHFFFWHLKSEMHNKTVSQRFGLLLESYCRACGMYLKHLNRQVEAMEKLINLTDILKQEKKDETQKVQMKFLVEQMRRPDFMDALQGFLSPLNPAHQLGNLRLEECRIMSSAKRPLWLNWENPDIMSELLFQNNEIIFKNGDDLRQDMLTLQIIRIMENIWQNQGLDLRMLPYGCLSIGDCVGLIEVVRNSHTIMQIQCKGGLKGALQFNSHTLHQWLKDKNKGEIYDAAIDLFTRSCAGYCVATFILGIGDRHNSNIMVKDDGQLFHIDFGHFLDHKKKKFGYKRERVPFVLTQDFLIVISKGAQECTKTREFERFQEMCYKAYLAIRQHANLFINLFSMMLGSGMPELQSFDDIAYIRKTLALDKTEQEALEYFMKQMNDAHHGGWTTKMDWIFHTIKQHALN
T5 sequence (Q96J92 whole entry): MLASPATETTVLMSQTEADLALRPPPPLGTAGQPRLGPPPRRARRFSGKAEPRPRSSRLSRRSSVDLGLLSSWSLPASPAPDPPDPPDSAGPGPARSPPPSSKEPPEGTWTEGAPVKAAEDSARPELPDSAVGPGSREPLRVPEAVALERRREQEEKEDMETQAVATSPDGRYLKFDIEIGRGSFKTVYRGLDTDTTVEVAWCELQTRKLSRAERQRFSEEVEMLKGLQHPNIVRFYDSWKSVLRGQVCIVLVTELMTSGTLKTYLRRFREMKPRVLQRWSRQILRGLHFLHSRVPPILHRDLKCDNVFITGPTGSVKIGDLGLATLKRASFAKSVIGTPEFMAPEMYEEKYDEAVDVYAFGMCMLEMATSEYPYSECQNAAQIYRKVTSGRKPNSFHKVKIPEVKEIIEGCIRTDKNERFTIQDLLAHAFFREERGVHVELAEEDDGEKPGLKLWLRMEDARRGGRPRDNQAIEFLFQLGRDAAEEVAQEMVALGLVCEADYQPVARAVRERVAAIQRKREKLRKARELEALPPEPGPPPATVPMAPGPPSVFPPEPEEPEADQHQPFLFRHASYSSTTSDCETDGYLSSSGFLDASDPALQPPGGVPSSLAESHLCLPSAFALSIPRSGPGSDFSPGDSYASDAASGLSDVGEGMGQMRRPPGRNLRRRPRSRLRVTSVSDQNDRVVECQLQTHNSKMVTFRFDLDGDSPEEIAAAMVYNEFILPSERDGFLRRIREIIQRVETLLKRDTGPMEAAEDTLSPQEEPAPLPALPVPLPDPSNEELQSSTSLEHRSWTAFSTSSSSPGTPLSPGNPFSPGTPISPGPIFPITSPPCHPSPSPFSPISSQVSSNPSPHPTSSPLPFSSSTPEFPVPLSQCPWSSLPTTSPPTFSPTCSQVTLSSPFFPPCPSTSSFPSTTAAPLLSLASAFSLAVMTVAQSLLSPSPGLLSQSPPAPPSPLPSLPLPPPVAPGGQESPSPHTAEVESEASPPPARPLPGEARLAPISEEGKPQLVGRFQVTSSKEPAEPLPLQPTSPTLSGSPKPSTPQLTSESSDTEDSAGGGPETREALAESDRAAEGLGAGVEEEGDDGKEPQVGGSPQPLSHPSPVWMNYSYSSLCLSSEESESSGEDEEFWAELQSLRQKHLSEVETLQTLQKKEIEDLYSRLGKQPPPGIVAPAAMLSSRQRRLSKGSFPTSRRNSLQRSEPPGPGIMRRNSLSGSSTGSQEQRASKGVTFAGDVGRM

In the case of `CC1(Nc2nc(Nc3cnn([C@H]4CCN(C5COC5)C[C@@H]4F)c3Cl)nc3[nH]cc(C#N)c23)CC1` [Example 52, 2-((5-chloro-1-((3S,4S)-3-fluoro-1-(oxetane-3-yl)piperidine-4-yl)-1H-pyrazole-4-yl)amino)((1-methylcyclopropyl)amino)-7H-pyrrolo[2,3-d]pyrimidine-5-carbonitrile], the remaining binding at 1 µM in [1] (setting [13]) was determined as 100%; in assay [1] (setting [14]) it was 24%; in assay [2] it was 33%; in assay [3], 19%; in assay [4], 1.3%; in assay [5], 100%. Moreover, the remaining binding at 1 µM is 40% in [6]; 63% in assay [7]; 0.2% in [8]; 9.9% in assay [9]; 0.8% in assay [10]; 100% in assay [11]. The molecule also yielded a remaining binding at 1 µM in [12] of 99%.

For `CCNc1nc(Nc2ccc(C(=O)N3CCC(N4CCOCC4)CC3)cc2OC)nc2[nH]cc(C(F)(F)F)c12` [Example 104, (4-((4-(ethylamino)-5-(trifluoromethyl)-7H-pyrrolo[2,3-d]pyrimidine-2-yl)amino)-3-methoxyphenyl)(4-morpholinopiperidine-1-yl)methanone], the remaining binding at 1 µM in assay [1] (setting [13]) was 100%; in [1] (setting [14]), 83%; in [2], 64%; in assay [3], 100%; in [4] it was 41%; in assay [5], 100%. The remaining binding at 1 µM is 100% in assay [6]; 91% in [7]; 100% in assay [8]; 100% in [9]; 25% in assay [10]; 100% in assay [11]. In [12], this molecule gave a remaining binding at 1 µM of 100%.

On to `CNc1nc(Nc2ccc(C(=O)N3CCOCC3)cc2OC)nc2[nH]cc(C#N)c12` [Example 1, 2-((2-methoxy-4-(morpholine-4-carbonyl)phenyl)amino)-4-(methylamino)-7H-pyrrolo[2,3-d]pyrimidine-5-carbonitrile], for which the remaining binding at 1 µM in assay [1] (setting [13]) is 94%; in assay [1] (setting [14]), 12%; in assay [2], 93%; in assay [3], 96%; in assay [4], 61%; in [5], 81%. Moreover, the remaining binding at 1 µM in [6] amounted to 100%; in [7], 94%; in assay [8], 92%; in assay [9] it was 85%; in assay [10], 22%; in assay [11] it was 83%. Besides, in assay [12], the remaining binding at 1 µM is 69%.
